Reference: patent US20230119239A1, “OROMUCOSAL FILM COMPOSITIONS” (ReForm Therapeutics Ltd., priority 2021, published 2023)

Experiment: Ex vivo permeation of liraglutide solution through porcine sublingual mucosa, Franz diffusion cell
Type: in vitro ADME
Details: liraglutide 3 mg/mL + Transcutol® HP (10% solution) compared with liraglutide solution alone; 120 minutes; receptor phosphate buffer pH 8.5; FIG. 4
Method: The solution of liraglutide, and solution of liraglutide and permeation enhancer was tested. […] Samples were taken at 0 and 120 minutes to determinate the presence of liraglutide in the receptor chamber. The concentration level of liraglutide was determined using HPLC/MS method.

## CCCCCCCCCCCCCCCC(=O)N[C@@H](CCC(=O)NCCCC[C@H](NC(=O)[C@H](C)NC(=O)[C@H](C)NC(=O)[C@H](CCC(N)=O)NC(=O)CNC(=O)[C@H](CCC(=O)O)NC(=O)[C@H](CC(C)C)NC(=O)[C@H](Cc1ccc(O)cc1)NC(=O)[C@H](CO)NC(=O)[C@H](CO)NC(=O)[C@@H](NC(=O)[C@H](CC(=O)O)NC(=O)[C@H](CO)NC(=O)[C@@H](NC(=O)[C@H](Cc1ccccc1)NC(=O)[C@@H](NC(=O)CNC(=O)[C@H](CCC(=O)O)NC(=O)[C@H](C)NC(=O)[C@@H](N)Cc1cnc[nH]1)[C@@H](C)O)[C@@H](C)O)C(C)C)C(=O)N[C@@H](CCC(=O)O)C(=O)N[C@@H](Cc1ccccc1)C(=O)N[C@H](C(=O)N[C@@H](C)C(=O)N[C@@H](Cc1c[nH]c2ccccc12)C(=O)N[C@@H](CC(C)C)C(=O)N[C@H](C(=O)N[C@@H](CCCNC(=N)N)C(=O)NCC(=O)N[C@@H](CCCNC(=N)N)C(=O)NCC(=O)O)C(C)C)[C@@H](C)CC)C(=O)O [liraglutide]
  permeation of liraglutide through sublingual mucosa ex vivo (in words): significantly increased permeation
